Experimental findings from US20160257651A1, “NOVEL COMPOUND WITH ANTIBACTERIAL ACTIVITY” (priority 2013, published 2016) are described below.

Structures are written as SMILES. Values after ≈ are worked out from the molar mass of the structure shown. Bounds are passed on as bounds.

In one assay the test system is S. aureus FDA209P (ATCC 6538P). Kind of assay: microbe, parasite or virus in culture. Particulars: Staphylococcus aureus, ATCC 6538P / FDA209P / MSSA, quinolone-susceptible MSSA, ParC 80S, GyrA 84S, read-out: MIC. It counts as cell-based, Staphylococcus aureus. Here is the method:
(§1) Then, the cell suspension was diluted 500 times with CAMHB mentioned above.
On to `O=c1cc(CO)c2cc(F)c(-c3ccc(O)cc3)cc2n1C1CC1` [J-131CP, 1-cyclopropyl-6-fluoro-4-(hydroxymethyl)-7-(4-hydroxyphenyl)-1,2-dihydroquinolin-2-one], for which the MIC was determined as 0.25 µg/mL (≈ 0.768 µM).

A further assay concerns S. aureus Mu50. Put plainly: microbe, parasite or virus in culture. It counts as cell-based, Staphylococcus aureus. The settings on record: MIC for S. aureus Mu50 / MIC for S. aureus FDA209P. Here is the method:
as §1
In the case of `O=c1cc(CO)c2cc(F)c(-c3ccc(O)cc3)cc2n1C1CC1` [J-131CP, 1-cyclopropyl-6-fluoro-4-(hydroxymethyl)-7-(4-hydroxyphenyl)-1,2-dihydroquinolin-2-one], the “MIC ratio (Mu50 MIC/FDA209P MIC)” value is listed as “≦0.25”.

Still in this assay, the particulars now being: Staphylococcus aureus, MRSA, S. aureus Mu50, quinolone-resistant MRSA; ParC S80F, GyrA S84L.
For `O=c1cc(CO)c2cc(F)c(-c3ccc(O)cc3)cc2n1C1CC1` [J-131CP, 1-cyclopropyl-6-fluoro-4-(hydroxymethyl)-7-(4-hydroxyphenyl)-1,2-dihydroquinolin-2-one], the MIC is ≤ 0.06 µg/mL.

A further assay has as its system S. aureus Mu50 NR1-1. Put plainly: microbe, parasite or virus in culture. The settings on record: Staphylococcus aureus, MU50NR11. It counts as cell-based. Here is the method:
as §1
For `O=c1cc(CO)c2cc(F)c(-c3ccc(O)cc3)cc2n1C1CC1` [J-131CP, 1-cyclopropyl-6-fluoro-4-(hydroxymethyl)-7-(4-hydroxyphenyl)-1,2-dihydroquinolin-2-one], the MIC is 0.25 µg/mL (≈ 0.768 µM).

Another assay has as its system S. aureus MR5867 one-step mutant. Put plainly: MIC against stepwise QRDR mutants. It counts as cell-based. The settings on record: Staphylococcus aureus. Here is the method:
(§2) The strains used for this test example are available from the inventors of the present invention.
as §1
`O=c1cc(CO)c2cc(F)c(-c3ccc(O)cc3)cc2n1C1CC1` [J-131CP, 1-cyclopropyl-6-fluoro-4-(hydroxymethyl)-7-(4-hydroxyphenyl)-1,2-dihydroquinolin-2-one] yielded an MIC of 0.25 µg/mL (≈ 0.768 µM).

In another assay the test system is S. aureus MS5952 one-step mutant. Put plainly: MIC against stepwise QRDR mutants. It counts as cell-based. The settings on record: Staphylococcus aureus. Here is the method:
as §2, §1
The compound `O=c1cc(CO)c2cc(F)c(-c3ccc(O)cc3)cc2n1C1CC1` [J-131CP, 1-cyclopropyl-6-fluoro-4-(hydroxymethyl)-7-(4-hydroxyphenyl)-1,2-dihydroquinolin-2-one] registered an MIC of 0.25 µg/mL (≈ 0.768 µM).

A further assay deals with Staphylococcus aureus VRS5 (VRSA). Kind of assay: MIC, S. aureus categories (Test Example 3). It counts as cell-based.
Details: not given
Here is the method: The antibacterial activities of the compound J-131CP against Staphylococcus aureus strains belonging to the five categories of Staphylococcus aureus, i.e., MSSA, MRSA, community-acquired-infection type MRSA (CA-MRSA), VISA, and VRSA, were investigated.
(§3) The compound J-131CP and quinolones were prepared in the same manner as that of Test Example 1-1.
Cell suspensions were prepared in the same manner as that of Test Example 1-1 described in the section of measurement of MIC in Test Example 1-1, except that the strains mentioned in Table 6 were used as Staphylococcus aureus, and MICs of the compound J-131CP and quinolones as the control were determined for the strains in the same manner as that of Test Example 1-1. In Table 6, the amino acid substitution mutations in QRDR of the strains are underlined.
Consider `O=c1cc(CO)c2cc(F)c(-c3ccc(O)cc3)cc2n1C1CC1` [J-131CP, 1-cyclopropyl-6-fluoro-4-(hydroxymethyl)-7-(4-hydroxyphenyl)-1,2-dihydroquinolin-2-one], for which the MIC is ≤ 0.06 µg/mL.

A further assay deals with E. faecalis 36-15747. Kind of assay: MIC against Enterococcus bacteria. It counts as cell-based. The settings on record: 3615747, ParC 80Ile. Here is the method:
(§4) Antibacterial activities of the compound J-131CP against Enterococcus bacteria (Enterococcus faecium and Enterococcus faecalis) were examined by the following methods.
as §3
(§5) Cell suspensions were prepared in the same manner as that of Test Example 1-1 described in the section of measurement of MIC in Test Example 1-1, except that the Enterococcus bacterium strains mentioned in Table 8 were used instead of Staphylococcus aureus, and MICs of the compound J-131CP and quinolones as control were determined for the strains in the same manner as that of Test Example 1-1 described in the section of measurement of MIC in Test Example 1-1. In Table 8, the amino acid substitution mutations in QRDR of the strains are underlined.
On to `O=c1cc(CO)c2cc(F)c(-c3ccc(O)cc3)cc2n1C1CC1` [J-131CP, 1-cyclopropyl-6-fluoro-4-(hydroxymethyl)-7-(4-hydroxyphenyl)-1,2-dihydroquinolin-2-one], for which the MIC worked out at 0.5 µg/mL (≈ 1.54 µM).

Another assay relates to E. faecalis NCTC12201. Put plainly: MIC against Enterococcus bacteria. It counts as cell-based. Particulars: Enterococcus faecalis, NCTC 12201 / VRE, quinolone-susceptible. Here is the method: as §4, §3, §5
Regarding `O=c1cc(CO)c2cc(F)c(-c3ccc(O)cc3)cc2n1C1CC1` [J-131CP, 1-cyclopropyl-6-fluoro-4-(hydroxymethyl)-7-(4-hydroxyphenyl)-1,2-dihydroquinolin-2-one], the MIC amounted to 0.5 µg/mL (≈ 1.54 µM).

For the next assay, the system named is E. faecalis NCTC12203. Put plainly: MIC against Enterococcus bacteria. Particulars: NCTC 12203 / VRE. It counts as cell-based. Here is the method:
as §4, §3, §5
`O=c1cc(CO)c2cc(F)c(-c3ccc(O)cc3)cc2n1C1CC1` [J-131CP, 1-cyclopropyl-6-fluoro-4-(hydroxymethyl)-7-(4-hydroxyphenyl)-1,2-dihydroquinolin-2-one] registered an MIC of 2 µg/mL (≈ 6.15 µM).

Another assay has as its system E. faecium NCTC12204. Put plainly: MIC against Enterococcus bacteria. It counts as cell-based. The settings on record: NCTC 12204 / VRE. Here is the method:
as §4, §3, §5
In turn, `O=c1cc(CO)c2cc(F)c(-c3ccc(O)cc3)cc2n1C1CC1` [J-131CP, 1-cyclopropyl-6-fluoro-4-(hydroxymethyl)-7-(4-hydroxyphenyl)-1,2-dihydroquinolin-2-one] yielded an MIC of 8 µg/mL (≈ 24.6 µM).

A further assay relates to E. faecium RPR10. Kind of assay: MIC against Enterococcus bacteria. It counts as cell-based. The settings on record: RPR10. Here is the method:
as §4, §3, §5
For `O=c1cc(CO)c2cc(F)c(-c3ccc(O)cc3)cc2n1C1CC1` [J-131CP, 1-cyclopropyl-6-fluoro-4-(hydroxymethyl)-7-(4-hydroxyphenyl)-1,2-dihydroquinolin-2-one], the MIC was 4 µg/mL (≈ 12.3 µM).

The subject of a further assay is E. faecalis 36-15722. Put plainly: MIC against Enterococcus bacteria. It counts as cell-based, Enterococcus faecalis. The settings on record: Enterococcus faecalis, 3615722; E. faecalis 36-15722, quinolone-resistant; ParC 80Ile, GyrA 84Ile; read-out: MIC. Here is the method: as §4, §3, §5
For the compound `O=c1cc(CO)c2cc(F)c(-c3ccc(O)cc3)cc2n1C1CC1` [J-131CP, 1-cyclopropyl-6-fluoro-4-(hydroxymethyl)-7-(4-hydroxyphenyl)-1,2-dihydroquinolin-2-one], the MIC was found to be 1 µg/mL (≈ 3.07 µM).

The next assay deals with S. pneumoniae BCLSP16. Kind of assay: MIC against pneumococcus, CAMHB with 5 mass % LHB. It counts as cell-based. The settings on record: Streptococcus pneumoniae, BCLSP16. The text has this:
(§6) Antibacterial activity of the compound J-131CP against pneumococcus (Streptococcus pneumoniae) was examined by the following method. The S. pneumoniae strains used for this test belong to any one of the categories of penicillin-susceptible pneumococcus (penicillin-susceptible Streptococcus pneumoniae, PSSP), penicillin-intermediate pneumococcus (penicillin-intermediate Streptococcus pneumoniae, PISP), and penicillin-resistant pneumococcus (penicillin-resistant Streptococcus pneumoniae, PRSP).
(§7) The compound J-131CP and quinolones were prepared in the same manner as that of Test Example 1-1, except that CAMHB containing 5 mass % of lysed horse blood (LHB) was used for the dilution instead of CAMHB. The lysed horse blood was prepared by adding sterilized water to horse sterile defibered blood (produced by Nippon Bio-Supp. Center) at a ratio of 1:1, subjecting the mixture to freezing and thawing 5 times, then centrifuging the mixture twice at 10,000 rpm for 20 minutes, and filtering the supernatant through a filter.
(§8) The S. pneumoniae strains mentioned in Table 11 were each cultured overnight at 37° C. on a blood agar medium as stationary culture. The blood agar medium was prepared by adding 5 mass % ovine sterile defibered blood (produced by Nippon Bio-Supp. Center) to a heart infusion agar medium (produced by EIKEN CHEMICAL). Each S. pneumoniae strain cultured overnight at 37° C. as stationary culture was further subcultured overnight at 37° C. on fresh blood agar medium as stationary culture. After completion of the culture, cells of each pneumococcus strain were collected with a swab, and suspended in physiological saline, and the suspension was adjusted with physiological saline to show absorbance of 0.08 to 0.13 at 625 nm as measured with an absorbance meter (produced by Amersham), and further diluted 200 times with CAMHB containing 5 mass % LHB.
(§9) CAMHB containing the compound J-131CP at each concentration or each quinolone at each concentration, and 5 mass % LHB was added to each well of a 96-well plate in a volume of 50 μL/well, each cell suspension diluted 200 times was added to the well in a volume of 50 μL/well, and stationary culture was carried out overnight at 37° C.
(§10) After completion of the culture, whether the bacterium proliferated or not was determined on the basis of visually observed turbidity of the culture in the well, and MIC values (mg/L) of the compound J-131CP and the quinolones for the strains were determined. In Table 11, the amino acid substitution mutations in QRDR of the strains are underlined.
In turn, `O=c1cc(CO)c2cc(F)c(-c3ccc(O)cc3)cc2n1C1CC1` [J-131CP, 1-cyclopropyl-6-fluoro-4-(hydroxymethyl)-7-(4-hydroxyphenyl)-1,2-dihydroquinolin-2-one] had an MIC of 4 µg/mL (≈ 12.3 µM).

A further assay relates to S. pneumoniae JHSP11. Put plainly: MIC against pneumococcus, CAMHB with 5 mass % LHB. It counts as cell-based. Particulars: Streptococcus pneumoniae.
Description: as §6, §7, §8, §9, §10
For `O=c1cc(CO)c2cc(F)c(-c3ccc(O)cc3)cc2n1C1CC1` [J-131CP, 1-cyclopropyl-6-fluoro-4-(hydroxymethyl)-7-(4-hydroxyphenyl)-1,2-dihydroquinolin-2-one], the MIC was found to be 4 µg/mL (≈ 12.3 µM).

The next assay relates to S. pneumoniae KBSP04. Kind of assay: MIC against pneumococcus, CAMHB with 5 mass % LHB. It counts as cell-based. Particulars: Streptococcus pneumoniae, KBSP04.
Description: as §6, §7, §8, §9, §10
With `O=c1cc(CO)c2cc(F)c(-c3ccc(O)cc3)cc2n1C1CC1` [J-131CP, 1-cyclopropyl-6-fluoro-4-(hydroxymethyl)-7-(4-hydroxyphenyl)-1,2-dihydroquinolin-2-one], the MIC turned out to be 4 µg/mL (≈ 12.3 µM).
